In paper PMC5062114, “Dual-targeting anti-angiogenic cyclic peptides as potential drug leads for cancer therapy” (Scientific Reports, 2016):
Bridge positions count the residues as written; N and C are the ends. Square brackets hold non-standard residues; d marks the D form. Peptide text beside a SMILES is read from it.

How the values were obtained:
Assay in all cases: cells
[1] = test system: PC3; details: read-out: IC50 ± S.D.; 48 hours, PC3; cell proliferation inhibition, MTT, 48-h incubation, 1.5 × 10^3 cells/well, triplicate, mean ± SD
Procedure: (§1) HUVECs (human umbilical vein endothelial cells) were cultured in EGM™-2 BulletKit™ supplemented with SingleQuots™ (supplements: growth factors, cytokines, antibiotics; Lonza) and 10% FBS (catalog no. FFBS-500; Scientifix). Both HT-29 and MCF-7 cells were cultured in 10% FBS/DMEM (Dulbecco’s Modified Eagle Medium) with 1% penicillin–streptomycin (5000 U/mL; Life Technologies), whereas PC3 cells (prostate cancer cells) were cultured in 10% FBS/RPMI (Roswell Park Memorial Institute) 1640 with 1% penicillin–streptomycin (5000 U/mL; Life Technologies). All cells were maintained at 37 °C in 5% CO2.
(§2) Cell cytotoxicity and proliferation assays were performed using similar methods to those described by Chan et al.[45]. All cells were maintained using the media conditions described above, and passages two to ten were used for all cell lines. For all cell lines, 5.0 × 10^3 cells/well (100 μL) and 1.5 × 10^3 cells/well (100 μL) were used for cell cytotoxicity and cell proliferation assays, respectively. All peptides (10 μL, at final concentrations ranging from 0.05–100 μM) and drugs, which included cilengitide, octreotide and sunitinib (at final concentrations ranging from 0.00001–100 μM), were used in both assays. Triton X-100 (0.1% (v/v); 10 μL) was used as a positive control. Cells were treated with fresh media the day after plating, before the addition of peptides, followed by a subsequent 2-h and 48-h incubation for cell cytotoxicity and cell proliferation, respectively. After different incubation periods, 3-(4, 5-dimethylthiazolyl-2)-2,5-diphenyltetrazolium bromide (MTT) (10 μL; 5 mg/mL in PBS) was added, and cells were incubated for a further 4 h. The supernatant was then removed and 100 μL DMSO added to solubilize formazan salts. Experiments were performed in triplicate. Cell numbers were recorded at 600 nm. All data represent average mean ± SD.

[2] = test system: HUVEC; details: read-out: IC50 ± S.D.; 48 hours, HUVEC; cell proliferation inhibition, MTT, 48-h incubation, 1.5 × 10^3 cells/well, triplicate, mean ± SD
Procedure: as §1, §2

[3] = test system: MCF-7; details: read-out: IC50 ± S.D.; 48 hours, MCF-7; cell proliferation inhibition, MTT, 48-h incubation, 1.5 × 10^3 cells/well, triplicate, mean ± SD
Procedure: as §1, §2

[4] = test system: HT-29; details: read-out: IC50 ± S.D.; 48 hours, HT-29; cell proliferation inhibition, MTT, 48-h incubation, 1.5 × 10^3 cells/well, triplicate, mean ± SD
Procedure: as §1, §2

| SMILES | IC50 [1] | IC50 [2] | IC50 [3] | IC50 [4] |
| --- | --- | --- | --- | --- |
| CC[C@H](C)[C@@H]1NC(=O)[C@@H]2CSSC[C@@H]3NC(=O)[C@H](Cc4ccccc4)NC(=O)[C@@H]4CCCN4C(=O)[C@H](CCC(N)=O)NC(=O)[C@H](CC(N)=O)NC(=O)[C@H](CC(C)C)NC(=O)[C@H](Cc4c[nH]cn4)NC(=O)[C@H](Cc4ccc(O)cc4)NC(=O)[C@@H]4CSSC[C@H](NC(=O)[C@H](CC(=O)O)NC(=O)[C@H](CO)NC(=O)[C@H](CC(=O)O)NC(=O)[C@H](CCCNC(=N)N)NC(=O)[C@H](CCCNC(=N)N)NC(=O)[C@H](CSSC[C@H](NC1=O)C(=O)N[C@@H](CCCNC(=N)N)C(=O)NCC(=O)N[C@@H](CC(N)=O)C(=O)NCC(=O)N[C@@H](Cc1ccc(O)cc1)C(=O)N4)NC(=O)[C@H](CCCCN)NC(=O)[C@H](CCCCN)NC(=O)[C@H](CC(C)C)NC(=O)[C@H]([C@@H](C)CC)NC(=O)[C@H](CCCCN)NC(=O)[C@@H]1CCCN1C3=O)C(=O)N1CCC[C@H]1C(=O)NCC(=O)N[C@@H](C)C(=O)N2 [MCo-PEDF] (cyclo(ACICRGNGYCYHLNQPFCPKILKKCRRDSDCPG); disulfide 2-18, 4-25, 10-31) | 39.11 ± 0.07 µM | 50.16 ± 0.15 µM | 53.44 ± 0.14 µM | 35.22 ± 0.08 µM |
| CC[C@H](C)[C@@H]1NC(=O)[C@@H]2CSSC[C@@H]3NC(=O)[C@H](Cc4c[nH]c5ccccc45)NC(=O)[C@H]([C@@H](C)O)NC(=O)[C@H](CCCCN)NC(=O)[C@@H](Cc4c[nH]c5ccccc45)NC(=O)[C@H](Cc4ccccc4)NC(=O)[C@H](CCCNC(=N)N)NC(=O)[C@@H]4CSSC[C@H](NC(=O)[C@H](CC(=O)O)NC(=O)[C@H](CO)NC(=O)[C@H](CC(=O)O)NC(=O)[C@H](CCCNC(=N)N)NC(=O)[C@H](CCCNC(=N)N)NC(=O)[C@H](CSSC[C@H](NC1=O)C(=O)N[C@@H](CCCNC(=N)N)C(=O)NCC(=O)N[C@@H](CC(N)=O)C(=O)NCC(=O)N[C@@H](Cc1ccc(O)cc1)C(=O)N4)NC(=O)[C@H](CCCCN)NC(=O)[C@H](CCCCN)NC(=O)[C@H](CC(C)C)NC(=O)[C@H]([C@@H](C)CC)NC(=O)[C@H](CCCCN)NC(=O)[C@@H]1CCCN1C3=O)C(=O)N1CCC[C@H]1C(=O)NCC(=O)N[C@@H](C)C(=O)N2 [MCo-SST-02] (cyclo(ACICRGNGYCRF[dW]KTWCPKILKKCRRDSDCPG); disulfide 2-17, 4-24, 10-30) | 83.55 ± 0.2 µM | > 100 µM | 70.61 ± 0.11 µM | 58.89 ± 0.09 µM |
| CC[C@H](C)[C@@H]1NC(=O)[C@@H]2CSSC[C@@H]3NC(=O)[C@H](C(C)C)NC(=O)CNC(=O)CNC(=O)[C@H](CC(=O)O)NC(=O)[C@H](CO)NC(=O)CNC(=O)[C@H](CO)NC(=O)CNC(=O)[C@@H]4CSSC[C@H](NC(=O)[C@H](CC(=O)O)NC(=O)[C@H](CO)NC(=O)[C@H](CC(=O)O)NC(=O)[C@H](CCCNC(=N)N)NC(=O)[C@H](CCCNC(=N)N)NC(=O)[C@H](CSSC[C@H](NC1=O)C(=O)N[C@@H](CCCNC(=N)N)C(=O)NCC(=O)N[C@@H](CC(N)=O)C(=O)NCC(=O)N[C@@H](Cc1ccc(O)cc1)C(=O)N4)NC(=O)[C@H](CCCNC(=N)N)NC(=O)[C@H](CCCNC(=N)N)NC(=O)[C@H](CCCNC(=N)N)NC(=O)[C@H](CCCCN)NC(=O)[C@H](CCCNC(=N)N)NC(=O)[C@H](CCCNC(=N)N)NC3=O)C(=O)N1CCC[C@H]1C(=O)NCC(=O)N[C@@H](C)C(=O)N2 [MCo-polyR-L1] (cyclo(ACICRGNGYCGSGSDGGVCRRKRRRCRRDSDCPG); disulfide 2-19, 4-26, 10-32) | > 100 µM | > 100 µM | > 100 µM | > 100 µM |
| CC[C@H](C)[C@@H]1NC(=O)[C@@H]2CSSC[C@@H]3NC(=O)CNC(=O)[C@H](CCCNC(=N)N)NC(=O)[C@H](CCCNC(=N)N)NC(=O)[C@H](CCCNC(=N)N)NC(=O)[C@H](CCCCN)NC(=O)[C@H](CCCNC(=N)N)NC(=O)[C@H](CCCNC(=N)N)NC(=O)CNC(=O)[C@@H]4CSSC[C@H](NC(=O)[C@H](CC(=O)O)NC(=O)[C@H](CO)NC(=O)[C@H](CC(=O)O)NC(=O)[C@H](CCCNC(=N)N)NC(=O)[C@H](CCCNC(=N)N)NC(=O)[C@H](CSSC[C@H](NC1=O)C(=O)N[C@@H](CCCNC(=N)N)C(=O)NCC(=O)N[C@@H](CC(N)=O)C(=O)NCC(=O)N[C@@H](Cc1ccc(O)cc1)C(=O)N4)NC(=O)[C@H](CCCCN)NC(=O)[C@H](CCCCN)NC(=O)[C@H](CC(C)C)NC(=O)[C@H]([C@@H](C)CC)NC(=O)[C@H](CCCCN)NC(=O)[C@@H]1CCCN1C3=O)C(=O)N1CCC[C@H]1C(=O)NCC(=O)N[C@@H](C)C(=O)N2 [MCo-polyR-L6] (cyclo(ACICRGNGYCGRRKRRRGCPKILKKCRRDSDCPG); disulfide 2-19, 4-26, 10-32) | > 100 µM | 34.95 ± 0.03 µM | > 100 µM | 52.89 ± 0.11 µM |
| CC[C@H](C)[C@@H]1NC(=O)[C@@H]2CSSC[C@@H]3NC(=O)[C@H](C(C)C)NC(=O)CNC(=O)CNC(=O)[C@H](CC(=O)O)NC(=O)[C@H](CO)NC(=O)CNC(=O)[C@H](CO)NC(=O)CNC(=O)[C@@H]4CSSC[C@H](NC(=O)[C@H](CC(=O)O)NC(=O)[C@H](CO)NC(=O)[C@H](CC(=O)O)NC(=O)[C@H](CCCNC(=N)N)NC(=O)[C@H](CCCNC(=N)N)NC(=O)[C@H](CSSC[C@H](NC1=O)C(=O)N[C@@H](CCCNC(=N)N)C(=O)N[C@@H](Cc1ccc(O)cc1)C(=O)N[C@H](Cc1c[nH]c5ccccc15)C(=O)N[C@@H](CCCCN)C(=O)N[C@@H](C(C)C)C(=O)N4)NC(=O)CNC(=O)[C@H](CCCNC(=N)N)NC(=O)[C@H](CCCNC(=N)N)NC(=O)[C@H](CCCNC(=N)N)NC(=O)[C@H](CCCCN)NC(=O)[C@H](CCCNC(=N)N)NC(=O)[C@H](CCCNC(=N)N)NC(=O)CNC3=O)C(=O)N1CCC[C@H]1C(=O)NCC(=O)N[C@@H](C)C(=O)N2 [MCoAA-01] (cyclo(ACICRY[dW]KVCGSGSDGGVCGRRKRRRGCRRDSDCPG); disulfide 2-19, 4-28, 10-34) | > 100 µM | 10.83 ± 0.09 µM | 45.01 ± 0.16 µM | 40.12 ± 0.13 µM |
| CC[C@H](C)[C@@H]1NC(=O)[C@@H]2CCCN2C(=O)[C@@H]2CCCN2C(=O)[C@H]([C@@H](C)CC)NC(=O)[C@H](CO)NC(=O)[C@H](CCCCN)NC(=O)[C@H]([C@@H](C)O)NC(=O)[C@@H]2CSSC[C@H](NC1=O)C(=O)N[C@@H](Cc1ccccc1)C(=O)N1CCC[C@H]1C(=O)N[C@@H](CC(=O)O)C(=O)NCC(=O)N[C@@H](CCCNC(=N)N)C(=O)N2 [SFTI-1, sunflower trypsin inhibitor-1, reference compound] | > 100 µM | > 100 µM | > 100 µM | > 100 µM |
| CC[C@H](C)[C@@H]1NC(=O)[C@@H]2CCCN2C(=O)[C@@H]2CCCN2C(=O)[C@H]([C@@H](C)CC)NC(=O)[C@H](CO)NC(=O)[C@H](CCCCN)NC(=O)[C@H]([C@@H](C)O)NC(=O)[C@@H]2CSSC[C@H](NC1=O)C(=O)N[C@@H](Cc1ccc(O)cc1)C(=O)N[C@@H](Cc1c[nH]cn1)C(=O)N[C@@H](CC(C)C)C(=O)N[C@@H](CC(N)=O)C(=O)N[C@@H](CCC(N)=O)C(=O)N1CCC[C@H]1C(=O)N[C@@H](Cc1ccccc1)C(=O)N2 [SFTI-PEDF] (cyclo(CTKSIPPICYHLNQPF); disulfide 1-9) | > 100 µM | 27.89 ± 0.11 µM | > 100 µM | > 100 µM |
| CC[C@H](C)[C@@H]1NC(=O)[C@@H]2CCCN2C(=O)[C@@H]2CCCN2C(=O)[C@H]([C@@H](C)CC)NC(=O)[C@H](CO)NC(=O)[C@H](CCCCN)NC(=O)[C@H]([C@@H](C)O)NC(=O)[C@@H]2CSSC[C@H](NC1=O)C(=O)N[C@@H](Cc1ccc(O)cc1)C(=O)N[C@H](Cc1c[nH]c3ccccc13)C(=O)N[C@@H](CCCCN)C(=O)N[C@@H](C(C)C)C(=O)N2 [SFTI-SST-01] (cyclo(CTKSIPPICY[dW]KV); disulfide 1-9) | > 100 µM | 18.32 ± 0.05 µM | 46.07 ± 0.05 µM | 45.38 ± 0.03 µM |
